Patent publication US20240336567A1, “PESTICIDAL AND HERBICIDAL COMPOUNDS AND METHODS OF USE THEREOF” (AG Plenus Ltd, priority 2021, published 2024)
Like-named read-outs stand apart in the source and are kept apart here.

What was measured:
[1] = test system: Eragrostis teff; assay: HTPS - Monocot - Pre-emergence; assay type: in vivo; conditions: N/A: not active; for Emax: read-out: HTPS - Monocot - Pre Max effect
Experimental: (§1) Arabidopsis thaliana seeds were sown in 96 well plates filled with irrigated Sweet sand (10%>clay) that is washed from salts and minerals using tap water. 5-10 seeds were sown in the center of each well. 7-8 days post sowing, at 2 true leaves stage, thinning out was performed to ensure that compound application is done on a single plant per well. The plates were placed in a controlled greenhouse in a random order inside a bath which allows flooding irrigation with tap water supplemented with a fertilizer. Applied compounds were dissolved into a final solution of 50% acetone, 49.9% DDW, 0.1% tween-20. A 96 well plate was used as a stock plate for preparing application solutions for 8 repeats. Each row contained different concentrations per chemical. Maximal concentration for application was 1.5 Kg/Ha and dilution factor is 2.5. Chemical application was performed one day after thinning out in a chemical hood. 5 μL applied on first two true leaves in each well using 12 channel pipettes. Data collection: RGB (red, green, blue) data for green area per well was documented using camera. Data is collected at a few time points during the experiment: one day after thinning and before chemical application, two-, six- or nine-days post application. During the last two documentations, visual phenotyping was performed. Data analysis: Given RGB results and visual phenotype scores, a student t-test conducted to compare between treatment and control performance for continuous data (RGB) and Fisher exact test to analyze the non-continuous data (phenotypic scores). Dose-Response curves are generated for each treatment to infer ED50 and max. inhibition parameters, using treatment's log concentration range as the […] variable and normalized green area. These experiments are conducted similarly except that either Arabidopsis thaliana or Eragrostis teff seeds were sowed (5-10 or 5-7, respectively), plant thinning out was not performed, compound dissolved into a final solution of 50% acetone, 49.9% DDW, compound application was done at 30 μL volume per well directly on sowed soil before plant emergence and data was collected 10 or 7 days after chemical application on dicot or monocot plants, respectively. Plate imaging performed at 11 and 18 DAA. RGB data for green area per well was documented and used to extract % inhibition. Dose-Response curves were built for each treatment to infer ED50, ED75 and ED90 parameters, using treatment's log concentration range as the independent variable and normalized green area as the dependent variable. Treatments were compared to controls performance given RGB results and using student's t-test (p-val≤0.05).

[2] = test system: Arabidopsis thaliana; assay: HTPS (high throughput on soil) - Dicot - Post-emergence; assay type: in vivo; conditions: N/A: not active; for Emax: read-out: HTPS - Dicot - Post Max effect; for HTPS - Dicot - Post ED50: from normalized green area
Experimental: as §1, with “area.” for “area. These experiments are conducted similarly except that either Arabidopsis thaliana or Eragrostis teff seeds were sowed (5-10 or 5-7, respectively), plant thinning out was not performed, compound dissolved into a final solution of 50% acetone, 49.9% DDW, compound application was done at 30 μL volume per well directly on sowed soil before plant emergence and data was collected 10 or 7 days after chemical application on dicot or monocot plants, respectively.”

[3] = test system: Arabidopsis thaliana; assay: HTPS - Dicot - Pre-emergence; assay type: in vivo; conditions: N/A: not active; for Emax: read-out: HTPS - Dicot - Pre Max effect
Experimental: as §1

[4] = test system: SETVI; assay: In-planta LTP pre-emergence, visual phenotype; assay type: in vivo, Setaria viridis; conditions: monocot; for pest or weed control at 2000 g/ha: Setaria viridis, 432 h
Experimental: (§2) A basic panel of 8 weed species (Table 3) were sowed in 4×4×7 cm plastic pots containing inert sand (Sweet sand), intensively washed using osmosis water. Each specie was sowed in a separate pot. In each pot 10-15 seeds were sowed according to the specie viability. Sowing was performed one day before application. The plants were grown for 21 days in a controlled greenhouse (26±2° C. day 20±2° C. night). Hood irrigation (tap water+Shefer 5:3:8 8 mM) was given at a 50% water content by weight. Compounds were soluble in water (DDW), and commercial herbicide control was soluble in formulation B (Table 4). Application was conducted with an industrial sprayer (TeeJet 6502E nozzle) at a rate of 2 kg/ha and spray volume of […]. Pre-emergence advanced dose response experiment application was conducted at six rates between 1-0.0312 kg/ha and spray volume of […]. Percentage of emergence was evaluated at 15 DAA. Visual phenotyping was recorded using a scale of 0-6 (0: no visible effect, 6: maximum effect) at 18 DAA. All experiments included an untreated control, a solvent control and a positive control (commercial herbicide A.I.). Statistical analysis for visual phenotyping determined by a median value of ≥3.5 and Fisher test (pval≤0.05). Statistical analysis for plant emergence determined by % emergence ≥50 and T test (pval≤0.05), as well as Wilcox test (pval≤0.05).

[5] = in vitro thermal shift (binding of compound to the target); conditions: thermal shift caused by binding of the compound to the (unnamed) target
[6] = test system: POAAN; assay: In-planta LTP pre-emergence, visual phenotype; assay type: in vivo, Poa annua; conditions: monocot; for pest or weed control at 2000 g/ha: Poa annua, 432 h, read-out: IG Inhibited growth (% effect)
Experimental: as §2

[7] = test system: MATCA; assay: In-planta LTP pre-emergence, visual phenotype; assay type: in vivo, Matricaria chamomilla; conditions: dicot
Experimental: as §2

[8] = test system: ALOMY; assay: In-planta LTP pre-emergence, visual phenotype; assay type: in vivo, Alopecurus myosuroides; conditions: monocot
Experimental: as §2

[9] = test system: AMAPA; assay: In-planta LTP pre-emergence, visual phenotype; assay type: in vivo, Amaranthus palmeri; conditions: dicot; for pest or weed control at 2000 g/ha: Amaranthus palmeri, 432 h, read-out: IG Inhibited growth (% effect)
Experimental: as §2

[10] = test system: AMAPA; assay: In-planta LTP post-emergence, visual phenotype; assay type: in vivo, Amaranthus palmeri; conditions: dicot
Experimental: A basic panel of eight weed species (Table 3) sowed in 4×4×7 cm plastic pots containing a garden mix (klasmann). Each specie was sowed in a separate pot. In each pot, 10-15 seeds were sowed according to the specie viability. Timing of application determined at a 1-2 true leaf stage. The plants grew for 30 days in a controlled greenhouse (26±2° C. day, 20±2° C. night). Hood irrigation (tap water+Shefer 5:3:8 8 mM) was given at a 50% water content by weight. Two days before application, the tested plants thinned down to three plants per pot. Compounds were soluble in water (DDW), and commercial herbicide control was soluble in formulation B (Table 4). Before application, 1% (v/v) crop oil and 0.02% (v/v) surfactant (Tergitol™ 15-5-7) were added to the solution. Application was conducted with an industrial sprayer (TeeJet 6502E nozzle) at a rate of 2 kg/ha and spray volume of […]. Plants were evaluated at 3 time points (4, 8, 12 days after application (DAA)). At each time point, visual phenotyping was recorded using a scale of 0-6 (0: no visible effect, 6: maximum effect). At 12 DAA, plants foliage was harvested, dried and weighed for dry weight analysis.
Post-emergence advanced dose response experiment included 4 species: SETVI, ECHCO, AMAPA, ABUTH (Tables 3, 5). Application was conducted at six rates between 0.6-0.0187 kg/ha and spray volume of […]. Plants were evaluated at 4 time points (6, 12, 18 and 26 DAA). At each time point, visual phenotyping was recorded using a scale of 0-6 (0: no visible effect, 6: maximum effect). At 26 DAA, plants foliage was harvested, dried and weighed for dry weight analysis.
Post-emergence advanced wide panel experiment included 24 weed species (Table 5). Application was conducted at 2 rates of 2 kg/ha and 0.25 kg/ha and spray volume of […]. Visual phenotyping was recorded at 4, 11, 17 and 20 DAA using a scale of 0-6 (0: no visible effect, 6: maximum effect). At 21 DAA, plants foliage was harvested, dried, and weighed for dry weight analysis. All experiments included an untreated control, a solvent control, and a positive control (commercial herbicide A.I.). Statistical analysis for visual phenotyping determined by a median value of ≥3.5 and Fisher test (pval≤0.05). Statistical analysis for dry weight determined by % inhibition ≥50 and T test (pval≤0.05), as well as Wilcox test (pval≤0.05).

[11] = test system: LOLPE; assay: In-planta LTP pre-emergence, visual phenotype; assay type: in vivo, Lolium perenne; conditions: monocot
Experimental: as §2

[12] = test system: DIGSA; assay: In-planta LTP pre-emergence, visual phenotype; assay type: in vivo, Digitaria sanguinalis; conditions: monocot
Experimental: as §2

[13] = test system: CHEAL; assay: In-planta LTP pre-emergence, visual phenotype; assay type: in vivo, Chenopodium album; conditions: dicot
Experimental: as §2

[14] = test system: EPPHL; assay: In-planta LTP pre-emergence, visual phenotype; assay type: in vivo, Euphorbia heterophylla; conditions: dicot
Experimental: as §2

[15] = test system: SOLNI; assay: In-planta LTP pre-emergence, visual phenotype; assay type: in vivo, Solanum nigrum; conditions: dicot
Experimental: as §2

[16] = test system: ABUTH; assay: In-planta LTP pre-emergence, visual phenotype; assay type: in vivo, Abutilon theophrasti; conditions: dicot
Experimental: as §2

[17] = test system: ECHCO; assay: In-planta LTP pre-emergence, visual phenotype; assay type: in vivo, Echinochloa colona; conditions: monocot
Experimental: as §2

[18] = read-out: DE Disturbed emergence (% effect)
[19] = read-out: IG Inhibited growth (% effect)

CC(N)COc1cncc(C(=O)O)n1 (stereo not drawn) [Compound 148] gave an Emax [1] of 100%, an Emax [2] of 17% and an Emax [3] of 28%. The pest or weed control at 2000 g/ha [4, 18] was 100%, the pest or weed control at 2000 g/ha [4, 19] was 100% and the “DRD Disturbed root development (% effect)” value [4] was “DRD^7 (100), %”. For the same molecule, the “in vitro Thermal Shift” value [5] was 12 °C, the pest or weed control at 2000 g/ha [6] was 40% and the “DRD Disturbed root development (% effect)” value [6] was “DRD (40) %”. For the same molecule, the “DE Disturbed emergence (% effect)” value [7] was “DE (40) %” and the “DRD Disturbed root development (% effect)” value [8] was “DRD (60) %”.
For CC(N)COc1cc(Cl)cc(C(=O)O)c1 (stereo not drawn) [Compound 109], the “HTPS - Monocot - Pre ED50” value [1] was 681 g/ha, the Emax [1] was 80% and the pest or weed control at 2000 g/ha [9] was 60%. For the same molecule, the “BL Bleaching (% effect)” value [10] was “BL (40) %”, the pest or weed control at 2000 g/ha [4, 18] was 100% and the “in vitro Thermal Shift” value [5] was 14 °C. For the same molecule, the pest or weed control at 2000 g/ha [6] was 100% and the “DE Disturbed emergence (% effect)” value [6] was “DE (100), %”.
For CC(N)COc1cccc(C(=O)O)n1 (stereo not drawn) [Compound 116], the “DE Disturbed emergence (% effect)” value [11] was “DE (100) %”, the “DE Disturbed emergence (% effect)” value [12] was “DE (100) %” and the “DAB Disturbed apical bud (% effect)” value [13] was “DAB (80) %”. The “IG Inhibited growth (% effect)” value [13] was “IG (80), %”, the “BL Bleaching (% effect)” value [14] was “BL (80), %” and the “DAB Disturbed apical bud (% effect)” value [14] was “DAB (80) %”. The “IG Inhibited growth (% effect)” value [14] was “IG (60), %”, the “DAB Disturbed apical bud (% effect)” value [15] was “DAB^2 (80) %” and the “IG Inhibited growth (% effect)” value [15] was “IG (80), %”. The “HTPS - Monocot - Pre ED50” value [1] was 10 g/ha, the Emax [1] was 100% and the Emax [2] was 100%. For the same molecule, the “HTPS - Dicot - Post ED50” value [2] was 3 g/ha, the pest or weed control at 2000 g/ha [9] was 80% and the “C Chlorosis (% effect)” value [9] was “C^3 (60), %”. For the same molecule, the “DAB Disturbed apical bud (% effect)” value [9] was “DAB (100) %”, the “HTPS - Dicot - Pre ED50” value [3] was 10 g/ha and the Emax [3] was 100%. The pest or weed control at 2000 g/ha [4, 18] was 100%, the “BL Bleaching (% effect)” value [16] was “Bl (80), %” and the “DAB Disturbed apical bud (% effect)” value [16] was “DAB (80) %”. The “IG Inhibited growth (% effect)” value [16] was “IG (80), %”, the “in vitro Thermal Shift” value [5] was 16 °C and the “DE Disturbed emergence (% effect)” value [6] was “DE (100) %”. For the same molecule, the “BL Bleaching (% effect)” value [7] was “BL^4 (40), %”, the “DAB Disturbed apical bud (% effect)” value [7] was “DAB (60) %” and the “IG Inhibited growth (% effect)” value [7] was “IG (80), %”. For the same molecule, the “IG Inhibited growth (% effect)” value [8] was “IG (100), %”, the “W Wilting (% effect)” value [8] was “W^5 (100) %” and the “DE Disturbed emergence (% effect)” value [17] was “DE (100) %”.
With CC(N)COc1ccc(F)c(C(=O)O)c1 (stereo not drawn) [Compound 108] the “HTPS - Monocot - Pre ED50” value [1] was 290 g/ha, the Emax [1] was 80% and the Emax [2] was 100%. For the same molecule, the “HTPS - Dicot - Post ED50” value [2] was 31 g/ha, the pest or weed control at 2000 g/ha [9] was 60% and the “HTPS - Dicot - Pre ED50” value [3] was 31 g/ha. It also gave an Emax [3] of 100%, a pest or weed control at 2000 g/ha [4, 18] of 100% and a pest or weed control at 2000 g/ha [4, 19] of 100%. The “in vitro Thermal Shift” value [5] was 16 °C, the pest or weed control at 2000 g/ha [6] was 80% and the “DE Disturbed emergence (% effect)” value [6] was “DE (80) %”.
In the case of CC(CN)Oc1cccc(C(=O)O)c1 (stereo not drawn) [Compound 102], the “HTPS - Monocot - Pre ED50” value [1] is reported as 650 g/ha, the Emax [1] is reported as 62% and the Emax [2] is reported as 92%. For the same molecule, the “HTPS - Dicot - Post ED50” value [2] was 127 g/ha, the pest or weed control at 2000 g/ha [9] was 60% and the “HTPS - Dicot - Pre ED50” value [3] was 127 g/ha. For the same molecule, the Emax [3] was 100%, the pest or weed control at 2000 g/ha [4, 18] was 100% and the pest or weed control at 2000 g/ha [4, 19] was 100%. The “in vitro Thermal Shift” value [5] was 13 °C and the pest or weed control at 2000 g/ha [6] was 60%.
